Assays:
[1] = tested on: T. cruzi intracellular amastigotes in H9c2 cells; experiment: Rate-of-Kill (RoK) high-content imaging assay, amastigotes per cell (AM/CELL) and curve descriptors; format: cell-based, Trypanosoma cruzi; design: key to ME_24h / ME_48h / ME_72h: % reduction in parasite burden (cidal response); t50pct_MCC50 / t50pct_Cmax: unit not given here; details: for ME_24h: 24h; for ME_48h: 48h; for ME_72h: 72h; for t50%_Cmax / tlag_Cmax / t50pct_Cmax: at Cmax; for ME_24h (%): maximum effect at 24 h; for ME_24h (%) / ME_48h (%) / ME_72h (%): RoK assay; for ME_48h (%): maximum effect at 48 h; for ME_72h (%): maximum effect at 72 h; for ME 24h (maximum effect at 24 hours, intracellular amastigotes): maximum percentage of parasite burden reduction reached by any concentration
How it was run: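 H9c2 cardiomyocytes infected with T. cruzi trypomastigotes (MOI 8, 18 h), then compounds tested at 5 μM single shot or 11-point 1/3 dilution from 50 μM. DRAQ5-stained nuclei imaged over a time course. Amastigotes per cell normalised to infected cells at 4 h (0%) and non-infected cells (100%).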

[2] = tested on: T. cruzi Tulahuen trypomastigotes; experiment: T. cruzi trypomastigote assay (Cell Titer-Glo viability, ATP luminescence); format: cell-based, Trypanosoma cruzi; details: for Trypomastigotes pIC50 48 hours: 48 hours incubation; for Trypomastigotes pIC50 48 hours / Trypomastigotes pIC50 72 hours: pIC50 = -log10 IC50 in molar units; for Trypomastigotes pIC50 72 hours: 72 hours incubation; for 72 pIC50 (trypomastigotes, raw data of Fig 1D): 72 hours, plotted values, censored values given without sign; for 48 pIC50 / 72 pIC50: trypomastigote assay; for 48 pIC50: 48 h; for 72 pIC50: 72 h
How it was run: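 Tulahuen trypomastigotes from infected LLC-MK2 culture supernatants (days 5–8) plated at 5 × 10^4 per well in DMEM/2% FBS with compound at 5 μM single-shot final or in dose response. Viability by CellTiter-Glo ATP luminescence after 10 min at room temperature, normalised to no-cell (100%) and DMSO (0%) controls.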

SMILES	ME_24h ([1]; figure 5)	ME_48h ([1]; figure 5)	ME_72h ([1]; figure 5)	MCCE ([1]; RoK curve descriptor) [µM]	AM/CELL NORM ([1]; Time 4, sheet figure 4 A)	AM/CELL NORM ([1]; Time 24, sheet figure 4 A)	AM/CELL NORM ([1]; Time 48, sheet figure 4 A)	AM/CELL NORM ([1]; Time 72, sheet figure 4 A)	tlag_Cmax [1] [h]	t50pct_Cmax ([1]; figure 5)	tlag_Cmax ([1]; figure 5)	t50pct_MCC50 ([1]; at MCC50, figure 5)	tlag_MCC50 ([1]; at MCC50, figure 5)	MCCE ([1]; figure 5)	ME_24h (%) [1] [%]	ME_48h (%) [1] [%]	ME_72h (%) [1] [%]	ME 24h (maximum effect at 24 hours, intracellular amastigotes) [1] [%]	Trypomastigotes pIC50 48 hours [2]	Trypomastigotes pIC50 72 hours [2]	other results
COc1ccc(S(=O)(=O)NC(C)C)cc1Nc1ncc(-c2cccc(F)c2)cn1 [TCMDC-143248]	-143.559	-20.0816	54.2238	0.6	-6.932	-311.598	-64.9455	9.4251	24.0	72	24	72	48	0.6173	-143.6	-20.1	54.2	-47.9652	< 4.3	< 4.3	MCC50 ([1]; RoK curve descriptor): 50.0 µM; t50%_Cmax [1]: 72.0 h; t50%_MCC50 ([1]; at MCC50): 72.0 h; tlag_MCC50 ([1]; at MCC50): 24.0 h; MCC50 ([1]; figure 5): 50 µM; 72 pIC50 (trypomastigotes, raw data of Fig 1D) [2]: < 4.3; 48 pIC50 ([2]; figure 1A): < 4.3; 72 pIC50 ([2]; figure 1A): < 4.3; 72 pIC50 ([2]; figure 1B): < 4.3
CCN(CC)S(=O)(=O)c1ccc(C(=O)Nc2cc(C)nn2-c2nc(C)c(C)c(=O)[nH]2)cc1 [TCMDC-143273]	-21.3076	17.6407	21.9061	0.6	-1.286	-40.8598	1.208	53.2799	24.0	72	24	72	38	0.6173	-21.3	17.6	21.9	4.663	6.2	6.3	MCC50 ([1]; RoK curve descriptor): 1.9 µM; t50%_Cmax [1]: 72.0 h; t50%_MCC50 ([1]; at MCC50): 72.0 h; tlag_MCC50 ([1]; at MCC50): 4.0 h; MCC50 ([1]; figure 5, in µM): 25.9259
COc1ccc(C(=O)Nc2cc(C(F)(F)F)ccc2N2CCOCC2)c(OC)c1 [TCMDC-143310]	64.6908	80.1309	94.1302	0.6	-57.2428	64.6908	80.1309	94.1302	4.0	24	4	72	4	0.6173	64.7	80.1	94.1	64.6908	5.8	6	MCC50 ([1]; RoK curve descriptor): 1.9 µM; t50%_Cmax [1]: 24.0 h; t50%_MCC50 ([1]; at MCC50): 72.0 h; tlag_MCC50 ([1]; at MCC50): 4.0 h; MCC50 ([1]; figure 5, in µM): 1.852
CC1CN(S(=O)(=O)c2ccc(NC(=O)c3cc(C4CC4)nc4c3cnn4C(C)C)cc2)CC(C)O1 (stereo not shown) [TCMDC-143200]	2.192	1.8894	56.9286	1.9	-14.9286	2.192	-23.2452	15.376	4.0	72	4	72	24	1.852	2.2	1.9	56.9	2.192	5.3	4.8	MCC50 ([1]; RoK curve descriptor): 1.9 µM; t50%_MCC50 ([1]; at MCC50): 72.0 h; tlag_MCC50 ([1]; at MCC50): 24.0 h; MCC50 ([1]; figure 5, in µM): 1.852
O=C(NCCc1ccccc1Cl)c1cccn1-c1cccnc1 [TCMDC-143253]	-106.211	-219.247	24.5352	0.6	-14.0913	-106.211	-401.6	-120.948	48.0	72	48	72	72	0.6173	-106.2	-219.3	24.5	-106.211	< 4.3	< 4.3	MCC50 ([1]; figure 5): 50 µM; 72 pIC50 (trypomastigotes, raw data of Fig 1D) [2]: < 4.3; 48 pIC50 ([2]; figure 1A): < 4.3; 72 pIC50 ([2]; figure 1A): < 4.3; 72 pIC50 ([2]; figure 1B): < 4.3
O=C(NCc1ccncc1)c1ccccc1N1CCCN(C(=O)Cc2ccc(F)c(F)c2)CC1.O=C(O)C(F)(F)F.O=C(O)C(F)(F)F [TCMDC-143300]	-279.048	-72.5657	30.5548	0.07	-9.816	-279.048	-94.5412	9.95	24.0	72	24	72	72	0.06859	-279.1	-72.6	30.6	-279.048	< 4.3	< 4.3	MCC50 ([1]; figure 5): 50 µM; 72 pIC50 (trypomastigotes, raw data of Fig 1D) [2]: < 4.3; 48 pIC50 ([2]; figure 1A): < 4.3; 72 pIC50 ([2]; figure 1A): < 4.3; 72 pIC50 ([2]; figure 1B): < 4.3
COc1ccc(NS(=O)(=O)c2cc(-c3cc(C)[nH]n3)ccc2C)cc1OC [TCMDC-143194]	-114.917	-675.674	-796.23	1.2	–	–	–	–	41.3	72	41.3333	72	56	1.237	-114.9	-675.7	-796.2	24.095	4.7	5.2	MCC50 ([1]; RoK curve descriptor): 16.7 µM; AM/CELL NORM ([1]; Time 4, figure 4 A): 17.4808; AM/CELL NORM ([1]; Time 24, figure 4 A): 13.7763; AM/CELL NORM ([1]; Time 48, figure 4 A): 30.9676; AM/CELL NORM ([1]; Time 72, figure 4 A): 53.1796; t50%_MCC50 ([1]; at MCC50): 72.0 h; tlag_MCC50 ([1]; at MCC50): 24.0 h; MCC50 ([1]; figure 5, in µM): 38.8889
COc1ccc(C(C)(C)C)cc1S(=O)(=O)n1ccnc1 [TCMDC-143275]	-36.0217	-75.3113	19.8776	0.2	7.308	-56.5644	-75.3113	-31.1405	48.0	72	48	72	72	0.2058	-36.0	-75.3	19.9	-36.0217	< 4.3	< 4.3	MCC50 ([1]; figure 5): 50 µM; 72 pIC50 (trypomastigotes, raw data of Fig 1D) [2]: < 4.3; 48 pIC50 ([2]; figure 1A): < 4.3; 72 pIC50 ([2]; figure 1A): < 4.3; 72 pIC50 ([2]; figure 1B): < 4.3
O=C(O)C(F)(F)F.O=c1ccc2ccc(F)c3c2n1C[C@H]3CN1CCC(NCc2cc3ccccc3o2)CC1 [TCMDC-143301]	26.9481	43.1407	49.4796	0.2	0.9981	26.9481	43.1407	49.4796	4.0	72	4	72	72	0.2058	27.0	43.1	49.5	26.9481	4.5	4.4	MCC50 ([1]; figure 5): 50 µM

Source: paper PMC8318231, “Rate-of-Kill (RoK) assays to triage large compound sets for Chagas disease drug discovery: Application to GSK Chagas Box” (PLoS Neglected Tropical Diseases, 2021)
